Experiment [1] is described as follows: Antioxidant activity assessed as superoxide dismutase-like activity by SOD-WST assay. The format is functional.
A short description of experiment [2]: Antioxidant activity assessed as trolox equivalent of […]-induced radical scavenging activity by ORAC fluorescence assay. The format is functional.

≈ marks a conversion by molar mass, not a printed value.

The IC50 is the concentration that gives 50% inhibition. As to `COc1c2cc(c(O)c1OC)CCCC[C@@H](O)CCc1ccc(O)c-2c1`, the IC50 in experiment [1] is more than 100 µg/mL. For `COc1c2cc(c(O)c1OC)CCCCC(=O)CCc1ccc(O)c-2c1` [MYRICANONE], the IC50 in experiment [1] is more than 1000 µg/mL. `O=c1c(O)c(-c2cc(O)c(O)c(O)c2)oc2cc(O)cc(O)c12` [MYRICETIN]: the Activity in experiment [2] is 16100 µmolequiv/g. Further, the IC50 in experiment [1] was 139.6 µg/mL (≈ 439 µM). In the case of `COC1=C(OC)C(=O)C2=C(CCCCC(O)CCc3ccc(O)c2c3)C1=O` (stereo not drawn) [ACTINIDIONE], the IC50 in experiment [1] stood at 7.9 µg/mL (≈ 21.2 µM). The same measure, in the same setting: the value for `C[C@@H]1O[C@@H](Oc2c(-c3cc(O)c(O)c(O)c3)oc3cc(O)cc(O)c3c2=O)[C@H](OC(=O)c2cc(O)c(O)c(O)c2)[C@H](O)[C@H]1O` was 38.6 µg/mL (≈ 62.6 µM).

Turning to `COc1c2cc(c(O)c1OC)CCCC[C@@H](OS(=O)(=O)O)CCc1ccc(O)c-2c1`, the Activity in experiment [2] came to 8680 µmolequiv/g. Also, the IC50 in experiment [1] was determined as 786.9 µg/mL (≈ 1790 µM). With `O=C(O[C@@H]1Cc2c(O)cc(O)cc2O[C@@H]1c1cc(O)c(O)c(O)c1)c1cc(O)c(O)c(O)c1` [EPIGALOCATECHIN GALLATE], the IC50 in experiment [1] is 26.1 µg/mL (≈ 56.9 µM). Still for that read-out and setting: the value for `COc1c2cc(c(O[C@@H]3O[C@H](COC(=O)c4cc(O)c(O)c(O)c4)[C@@H](O)[C@H](O)[C@H]3O)c1OC)CCCC[C@@H](O)CCc1ccc(O)c-2c1` was 90.5 µg/mL (≈ 135 µM); that for `O=C(O)c1cc(O)c(O)c(O)c1` [GALLIC ACID] was 6.3 µg/mL (≈ 37 µM); that for `COc1c2cc(c(O[C@@H]3O[C@H](COC(=O)c4cc(O)c(O)c(O)c4)[C@@H](O)[C@H](O)[C@H]3O)c1OC)CCCC[C@H](O)CCc1ccc(O)c-2c1` was 139.6 µg/mL (≈ 208 µM).

`COc1cc2cc(c1O)-c1cc(ccc1O)CC[C@@H](OS(=O)(=O)O)CCCC2`: the Activity in experiment [2] is 9620 µmolequiv/g. The IC50 in experiment [1] is more than 1000 µg/mL. For the molecule `COc1c2cc(c(O[C@@H]3O[C@H](COC(=O)c4cc(O)c(O)c(O)c4)[C@@H](O)[C@H](O)[C@H]3O)c1OC)CCCCC(=O)CCc1ccc(O)c-2c1`, the IC50 in experiment [1] was found to be 106.8 µg/mL (≈ 159 µM). On to `C[C@H]1O[C@@H](Oc2c(-c3cc(O)c(O)c(O)c3)oc3cc(O)cc(O)c3c2=O)[C@@H](O)[C@@H](O)[C@@H]1O` [MYRICITRIN], for which the Activity in experiment [2] was determined as 13200 µmolequiv/g. In addition, the IC50 in experiment [1] is 127.5 µg/mL (≈ 275 µM). Consider `O=C(O[C@@H]1[C@@H](c2c(O)cc(O)c3c2O[C@H](c2cc(O)c(O)c(O)c2)[C@H](OC(=O)c2cc(O)c(O)c(O)c2)C3)c2c(O)cc(O)cc2O[C@@H]1c1cc(O)c(O)c(O)c1)c1cc(O)c(O)c(O)c1`, for which the IC50 in experiment [1] came to 19.2 µg/mL (≈ 21 µM).

For the origin of these results see ChEMBL document CHEMBL2151013, “Diarylheptanoid sulfates and related compounds from Myrica rubra bark” (J Nat Prod, 2012).
